# Assay results reported in patent publication US20240409585A1, “MACROCYCLIC IMMUNOMODULATORS” (priority 2021, published 2024).
# Bridge positions count the residues as written; N and C are the ends. Square brackets hold non-standard residues; d marks the D form. Peptide text beside a SMILES is read from it. * marks the point of attachment. Phe(4-COOH) = N[C@@H](Cc1ccc(C(=O)O)cc1)C(=O)O; Bip = N[C@@H](Cc1ccc(-c2ccccc2)cc1)C(=O)O; Phe(3-Me) = Cc1cccc(C[C@H](N)C(=O)O)c1; Val(3-OH) = CC(C)(O)[C@H](N)C(=O)O; 4Pal = N[C@@H](Cc1ccncc1)C(=O)O; Cha = N[C@@H](CC1CCCCC1)C(=O)O; Cit = NC(=O)NCCC[C@H](N)C(=O)O; Carboxymethyl = O=C(O)C*; NMeA = CN[C@@H](C)C(=O)O; Orn = NCCC[C@H](N)C(=O)O; Pra = C#CC[C@H](N)C(=O)O; Dab = NCC[C@H](N)C(=O)O
# Biological target: T1, PE-labeled human PD-L1-Ig binding to Jurkat cell line over-expressing human PD-1 (Jurkat-PD-1) (Homo sapiens, UniProt Q15116)
# T1 construct: expressed in transfected cells; host or cells: Jurkat
# Assay: Jurkat-PD-1 Cell Binding High-Content Screening Assay (CBA): Method 1
# Conditions: Jurkat-hPD-1 cells, PE-labeled PD-L1-Ig 20 nM final; read-out: Jurkat HPDL1 PD1 IC50 (uM) (Method 1)
# T1 sequence (Q15116 25-288): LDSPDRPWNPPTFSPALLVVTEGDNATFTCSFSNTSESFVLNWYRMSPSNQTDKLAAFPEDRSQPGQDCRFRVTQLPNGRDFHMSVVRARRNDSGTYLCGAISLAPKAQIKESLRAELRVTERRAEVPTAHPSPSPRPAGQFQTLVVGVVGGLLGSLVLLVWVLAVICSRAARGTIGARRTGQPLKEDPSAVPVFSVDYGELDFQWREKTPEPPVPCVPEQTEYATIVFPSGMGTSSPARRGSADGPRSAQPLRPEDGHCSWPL
row,IC50,Compound
1,0.02 µM,C#CC[C@H](NC(=O)[C@@H](C)NC(=O)[C@@H]1CSCC(=O)N[C@@H](Cc2ccc(OCC(=O)O)cc2)C(=O)N[C@@H](Cc2ccc(C(=O)O)cc2)C(=O)N[C@@H](CC(=O)O)C(=O)N[C@@H](Cc2c[nH]c3ccccc23)C(=O)N[C@@H](CC(C)C)C(=O)N[C@@H](Cc2ccc(-c3ccccc3)cc2)C(=O)N[C@@H](C(C)C)C(=O)N(C)[C@@H](C)C(=O)N[C@H](CC(C)C)C(=O)N[C@@H](CCN)C(=O)N[C@@H](CC2CCCCC2)C(=O)N[C@@H](C(C)(C)O)C(=O)N[C@@H](CO)C(=O)N1)C(N)=O [Compound 1940] ({CH2CO}-Y(Carboxymethyl)[Phe(4-COOH)]DWL[Bip]V[NMeA][dL][Dab][Cha][Val(3-OH)]SC[dA][Pra]-NH2; thioether N-14)
2,0.01 µM,C#CC[C@H](NC(=O)[C@@H](C)NC(=O)[C@@H]1CSCC(=O)N[C@@H](Cc2ccc(OCC(=O)O)cc2)C(=O)N[C@@H](Cc2ccc(C(=O)O)cc2)C(=O)N[C@@H](CC(=O)O)C(=O)N[C@@H](Cc2c[nH]c3ccccc23)C(=O)N[C@@H](CC(C)C)C(=O)N[C@@H](Cc2ccc(-c3ccccc3)cc2)C(=O)N[C@@H](C(C)C)C(=O)N(C)[C@@H](C)C(=O)N[C@H](CC(C)C)C(=O)N[C@@H](CCN)C(=O)N[C@@H](CC2CCCCC2)C(=O)N[C@@H](C(C)(C)O)C(=O)N[C@@H](CO)C(=O)N1)C(=O)O [Compound 1941] ({CH2CO}-Y(Carboxymethyl)[Phe(4-COOH)]DWL[Bip]V[NMeA][dL][Dab][Cha][Val(3-OH)]SC[dA][Pra]-OH; thioether N-14)
3,0.01 µM,C#CC[C@H](NC(=O)[C@@H](C)NC(=O)[C@@H]1CSCC(=O)N[C@@H](Cc2c[nH]cn2)C(=O)N[C@@H](Cc2ccc(OCC(=O)O)cc2)C(=O)N[C@@H](CC(=O)O)C(=O)N[C@@H](Cc2c[nH]c3ccccc23)C(=O)N[C@@H](C(C)C)C(=O)N[C@@H](Cc2ccc(-c3ccccc3)cc2)C(=O)N[C@@H](C(C)C)C(=O)N(C)[C@@H](C)C(=O)N[C@H](CC(C)C)C(=O)N[C@@H](CCN)C(=O)N[C@@H](CC2CCCCC2)C(=O)N[C@@H](C(C)(C)O)C(=O)N[C@@H](CO)C(=O)N1)C(N)=O [Compound 1942] ({CH2CO}-HY(Carboxymethyl)DWV[Bip]V[NMeA][dL][Dab][Cha][Val(3-OH)]SC[dA][Pra]-NH2; thioether N-14)
4,0.01 µM,C#CC[C@H](NC(=O)[C@@H](C)NC(=O)[C@@H]1CSCC(=O)N[C@@H](Cc2c[nH]cn2)C(=O)N[C@@H](Cc2ccc(OCC(=O)O)cc2)C(=O)N[C@@H](CC(=O)O)C(=O)N[C@@H](Cc2c[nH]c3ccccc23)C(=O)N[C@@H](C(C)C)C(=O)N[C@@H](Cc2ccc(-c3ccccc3)cc2)C(=O)N[C@@H](C(C)C)C(=O)N(C)[C@@H](C)C(=O)N[C@H](CC(C)C)C(=O)N[C@@H](CCN)C(=O)N[C@@H](CC2CCCCC2)C(=O)N[C@@H](C(C)(C)O)C(=O)N[C@@H](CO)C(=O)N1)C(=O)O [Compound 1943] ({CH2CO}-HY(Carboxymethyl)DWV[Bip]V[NMeA][dL][Dab][Cha][Val(3-OH)]SC[dA][Pra]-OH; thioether N-14)
5,0.9 µM,C#CC[C@H](NC(=O)[C@@H](C)NC(=O)[C@@H]1CSCC(=O)N[C@@H]([C@@H](C)O)C(=O)N[C@@H](Cc2ccc(OCC(=O)O)cc2)C(=O)N[C@@H](CC(=O)O)C(=O)N[C@@H](Cc2cccc(C)c2)C(=O)N[C@@H](Cc2ccc(OCC(=O)O)cc2)C(=O)N[C@@H](Cc2ccc(-c3ccccc3)cc2)C(=O)N[C@@H](Cc2ccc(OCC(=O)O)cc2)C(=O)N(C)[C@@H](C)C(=O)N[C@H](CC(C)C)C(=O)N[C@@H](CCN)C(=O)N[C@@H](CC2CCCCC2)C(=O)N[C@@H](C(C)(C)O)C(=O)N[C@@H](CCC(=O)O)C(=O)N1)C(=O)O [Compound 1944] ({CH2CO}-TY(Carboxymethyl)D[Phe(3-Me)]Y(Carboxymethyl)[Bip]Y(Carboxymethyl)[NMeA][dL][Dab][Cha][Val(3-OH)]EC[dA][Pra]-OH; thioether N-14)
6,0.93 µM,C#CC[C@H](NC(=O)[C@@H](C)NC(=O)[C@@H]1CSCC(=O)N[C@@H]([C@@H](C)O)C(=O)N[C@@H](Cc2ccc(OCC(=O)O)cc2)C(=O)N[C@@H](CC(=O)O)C(=O)N[C@@H](Cc2cccc(C)c2)C(=O)N[C@@H](Cc2ccc(OCC(=O)O)cc2)C(=O)N[C@@H](Cc2ccc(-c3ccccc3)cc2)C(=O)N[C@@H](Cc2ccc(OCC(=O)O)cc2)C(=O)N(C)[C@@H](C)C(=O)N[C@H](CC(C)C)C(=O)N[C@@H](CCN)C(=O)N[C@@H](CC2CCCCC2)C(=O)N[C@@H](C(C)(C)O)C(=O)N[C@@H](CCC(=O)O)C(=O)N1)C(N)=O [Compound 1945] ({CH2CO}-TY(Carboxymethyl)D[Phe(3-Me)]Y(Carboxymethyl)[Bip]Y(Carboxymethyl)[NMeA][dL][Dab][Cha][Val(3-OH)]EC[dA][Pra]-NH2; thioether N-14)
7,0.43 µM,C#CC[C@H](NC(=O)[C@@H](C)NC(=O)[C@@H]1CSCC(=O)N[C@@H]([C@@H](C)O)C(=O)N[C@@H](Cc2ccc(C(=O)O)cc2)C(=O)N[C@@H](CC(=O)O)C(=O)N[C@@H](Cc2cccc(C)c2)C(=O)N[C@@H](Cc2ccc(C(=O)O)cc2)C(=O)N[C@@H](Cc2ccc(-c3ccccc3)cc2)C(=O)N[C@@H](Cc2ccc(OCC(=O)O)cc2)C(=O)N(C)[C@@H](C)C(=O)N[C@H](CC(C)C)C(=O)N[C@@H](CCN)C(=O)N[C@@H](CC2CCCCC2)C(=O)N[C@@H](C(C)(C)O)C(=O)N[C@@H](CCC(=O)O)C(=O)N1)C(N)=O [Compound 1947] ({CH2CO}-T[Phe(4-COOH)]D[Phe(3-Me)][Phe(4-COOH)][Bip]Y(Carboxymethyl)[NMeA][dL][Dab][Cha][Val(3-OH)]EC[dA][Pra]-NH2; thioether N-14)
8,0.02 µM,CC(C)C[C@@H]1NC(=O)[C@H](Cc2c[nH]c3ccccc23)NC(=O)[C@H](CC(=O)O)NC(=O)[C@H](Cc2ccncc2)NC(=O)[C@H](Cc2ccc(OCC(=O)O)cc2)NC(=O)CSC[C@@H](C(=O)N[C@@H](CCN)C(N)=O)NC(=O)[C@H](CCCN)NC(=O)[C@H](C(C)C)NC(=O)[C@H](CC2CCCCC2)NC(=O)[C@H](CCN)NC(=O)[C@@H](CC(C)C)NC(=O)[C@H](C)N(C)C(=O)[C@H](C(C)C)NC(=O)[C@H](Cc2ccc(-c3ccccc3)cc2)NC1=O [Compound 1948] ({CH2CO}-Y(Carboxymethyl)[4Pal]DWL[Bip]V[NMeA][dL][Dab][Cha]V[Orn]C[Dab]-NH2; thioether N-14)
9,0.02 µM,CC(C)C[C@@H]1NC(=O)[C@H](CC(N)=O)NC(=O)[C@@H](CC(C)C)NC(=O)[C@H](C)N(C)C(=O)[C@H](CCCNC(N)=O)NC(=O)[C@H](Cc2ccc(-c3ccccc3)cc2)NC(=O)[C@H](C(C)C)NC(=O)[C@H](Cc2c[nH]c3ccccc23)NC(=O)[C@H](CC(=O)O)NC(=O)[C@H](Cc2ccc(O)cc2)NC(=O)[C@H](Cc2ccccc2)NC(=O)CSC[C@@H](C(=O)N[C@@H](C)C(=O)N[C@@H](CCN)C(=O)O)NC(=O)[C@H](CO)NC(=O)[C@H](C(C)C)NC1=O [Compound 2000] ({CH2CO}-FYDWV[Bip][Cit][NMeA][dL]NLVSCA[Dab]-OH; thioether N-14)
